According to ChEMBL document CHEMBL4507267 (2021):
pKi: −log10 of the molar value.

Columns and labels:
[1] = target: Membrane-associated tyrosine- and threonine-specific cdc2-inhibitory kinase (Homo sapiens) (UniProt Q99640); conditions: Compound concentration 1000.0 nM
[2] = target: Atypical kinase COQ8B, mitochondrial (Homo sapiens) (UniProt Q96D53); conditions: Compound concentration 1000.0 nM
[3] = target: 5-hydroxytryptamine receptor 7 (Homo sapiens) (UniProt P34969); conditions: Compound concentration 10.0 uM
[4] = target: Serine/threonine-protein kinase Nek10 (Homo sapiens) (UniProt Q6ZWH5); conditions: Compound concentration 1000.0 nM
[5] = target: Serine/threonine-protein kinase Sgk1 (Homo sapiens) (UniProt O00141); conditions: Compound concentration 1000.0 nM
[6] = tested on: Proto-oncogene tyrosine-protein kinase receptor Ret (Homo sapiens), P07949 [V804L]; conditions: Compound concentration 1000.0 nM
[7] = target: Serine/threonine-protein kinase RIO1 (Homo sapiens) (UniProt Q9BRS2); conditions: Compound concentration 1000.0 nM
[8] = target: Dual specificity protein kinase TTK (Homo sapiens) (UniProt P33981); conditions: Compound concentration 1000.0 nM
Rattus norvegicus = organism: Rattus norvegicus; conditions: Compound concentration 10.0 uM
[9] = target: BDNF/NT-3 growth factors receptor (Homo sapiens) (UniProt Q16620); conditions: Compound concentration 1000.0 nM
[10] = target: Cyclin-dependent kinase 19 (Homo sapiens) (UniProt Q9BWU1); conditions: Compound concentration 1000.0 nM
[11] = target: Solute carrier family 2, facilitated glucose transporter member 4 (Homo sapiens, UniProt P14672); assay: Cell-based assay with CellTiter-Glo readout for ATP production with SLC2A4
[12] = tested on: Fibroblast growth factor receptor 3 (Homo sapiens), P22607 [G697C]; conditions: Compound concentration 1000.0 nM
Histamine H1 receptor [13] = target: T1, Histamine H1 receptor (Homo sapiens, UniProt P35367); assay: GPCRScan assay: inhibition of H1; parameters: radioligand conc. used [nm] 0.6 – 2.0, parental cells stable HEK
Histamine H2 receptor = Histamine H2 receptor (Homo sapiens, UniProt P25021); assay: GPCRScan assay: inhibition of H2; parameters: radioligand conc. used [nm] 0.02 – 0.05, parental cells Stable HEK
[14] = target: Serine/threonine-protein kinase Nek7 (Homo sapiens) (UniProt Q8TDX7); conditions: Compound concentration 1000.0 nM
[15] = target: Serine/threonine-protein kinase PLK2 (Homo sapiens) (UniProt Q9NYY3); conditions: Compound concentration 1000.0 nM
[16] = target: Sodium-dependent noradrenaline transporter (Homo sapiens) (UniProt P23975); conditions: Compound concentration 10.0 uM
[17] = target: Sigma intracellular receptor 2 (Homo sapiens) (UniProt Q5BJF2); conditions: Compound concentration 10.0 uM
Histamine H1 receptor [18] = target: T1, Histamine H1 receptor; conditions: Compound concentration 10.0 uM
[19] = target: D(1A) dopamine receptor (Homo sapiens) (UniProt P21728); conditions: Compound concentration 10.0 uM
[20] = target: Delta-type opioid receptor (Homo sapiens) (UniProt P41143); conditions: Compound concentration 10.0 uM
[21] = target: Solute carrier family 2, facilitated glucose transporter member 2 (Homo sapiens, UniProt P11168); assay: Cell-based assay with CellTiter-Glo readout for ATP production with SLC2A2

Sequence of Serine/threonine-protein kinase Nek10 (Homo sapiens) (Q6ZWH5 whole entry): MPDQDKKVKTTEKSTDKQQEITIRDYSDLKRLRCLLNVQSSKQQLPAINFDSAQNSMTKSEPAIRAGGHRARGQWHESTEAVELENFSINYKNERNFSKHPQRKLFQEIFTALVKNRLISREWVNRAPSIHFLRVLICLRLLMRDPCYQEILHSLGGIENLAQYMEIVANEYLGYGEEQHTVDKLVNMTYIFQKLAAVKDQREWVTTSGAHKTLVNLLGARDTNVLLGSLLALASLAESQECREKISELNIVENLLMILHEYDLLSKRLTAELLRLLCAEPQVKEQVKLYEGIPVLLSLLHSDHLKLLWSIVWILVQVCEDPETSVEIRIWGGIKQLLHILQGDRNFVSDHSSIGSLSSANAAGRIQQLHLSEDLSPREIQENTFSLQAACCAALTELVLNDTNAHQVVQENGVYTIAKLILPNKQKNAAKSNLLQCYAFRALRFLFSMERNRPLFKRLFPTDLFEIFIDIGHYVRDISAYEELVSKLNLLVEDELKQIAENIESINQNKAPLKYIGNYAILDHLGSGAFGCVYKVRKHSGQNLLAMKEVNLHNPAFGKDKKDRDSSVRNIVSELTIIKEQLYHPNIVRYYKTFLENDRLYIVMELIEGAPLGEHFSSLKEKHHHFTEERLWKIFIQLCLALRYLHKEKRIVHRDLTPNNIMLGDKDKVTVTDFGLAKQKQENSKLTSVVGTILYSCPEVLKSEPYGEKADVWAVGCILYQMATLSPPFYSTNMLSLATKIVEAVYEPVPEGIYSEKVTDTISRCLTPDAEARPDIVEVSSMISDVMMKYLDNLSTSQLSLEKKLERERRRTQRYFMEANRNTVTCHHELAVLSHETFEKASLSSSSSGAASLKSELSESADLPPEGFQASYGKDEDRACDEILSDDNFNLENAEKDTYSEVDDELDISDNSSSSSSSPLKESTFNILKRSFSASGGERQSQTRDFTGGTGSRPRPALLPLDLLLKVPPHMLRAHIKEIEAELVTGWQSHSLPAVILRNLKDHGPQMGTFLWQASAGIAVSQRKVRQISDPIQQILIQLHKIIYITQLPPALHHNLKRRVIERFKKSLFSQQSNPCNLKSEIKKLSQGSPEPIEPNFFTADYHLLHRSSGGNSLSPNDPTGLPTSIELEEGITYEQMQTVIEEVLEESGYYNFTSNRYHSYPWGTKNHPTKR
T1 sequence (P35367 whole entry): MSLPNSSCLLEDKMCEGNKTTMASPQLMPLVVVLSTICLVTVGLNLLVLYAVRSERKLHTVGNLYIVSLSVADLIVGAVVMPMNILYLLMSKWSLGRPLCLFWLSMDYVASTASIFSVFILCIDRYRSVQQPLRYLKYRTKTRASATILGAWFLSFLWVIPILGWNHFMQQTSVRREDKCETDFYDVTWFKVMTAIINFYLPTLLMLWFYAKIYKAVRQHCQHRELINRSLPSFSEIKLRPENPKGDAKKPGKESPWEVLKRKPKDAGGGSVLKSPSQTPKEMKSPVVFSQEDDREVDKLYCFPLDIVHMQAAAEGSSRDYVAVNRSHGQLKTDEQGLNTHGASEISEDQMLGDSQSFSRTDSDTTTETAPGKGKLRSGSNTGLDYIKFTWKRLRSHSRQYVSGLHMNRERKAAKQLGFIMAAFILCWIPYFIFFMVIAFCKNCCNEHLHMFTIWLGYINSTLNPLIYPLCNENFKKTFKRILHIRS
Sequence of Cyclin-dependent kinase 19 (Homo sapiens) (Q9BWU1 whole entry): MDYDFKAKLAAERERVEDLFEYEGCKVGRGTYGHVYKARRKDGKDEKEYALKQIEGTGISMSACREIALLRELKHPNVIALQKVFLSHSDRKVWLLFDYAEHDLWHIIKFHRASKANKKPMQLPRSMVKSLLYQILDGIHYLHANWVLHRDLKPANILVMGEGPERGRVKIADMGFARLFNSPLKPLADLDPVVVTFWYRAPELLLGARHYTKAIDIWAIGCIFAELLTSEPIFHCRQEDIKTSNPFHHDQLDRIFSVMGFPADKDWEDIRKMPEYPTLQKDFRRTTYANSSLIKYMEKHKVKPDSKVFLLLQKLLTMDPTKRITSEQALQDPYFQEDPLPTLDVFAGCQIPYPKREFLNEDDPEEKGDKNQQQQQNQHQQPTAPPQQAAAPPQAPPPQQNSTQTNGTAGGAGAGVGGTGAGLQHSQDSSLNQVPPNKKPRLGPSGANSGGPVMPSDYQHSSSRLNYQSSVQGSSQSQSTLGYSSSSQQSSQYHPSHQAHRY
Sequence of Serine/threonine-protein kinase RIO1 (Homo sapiens) (Q9BRS2 whole entry): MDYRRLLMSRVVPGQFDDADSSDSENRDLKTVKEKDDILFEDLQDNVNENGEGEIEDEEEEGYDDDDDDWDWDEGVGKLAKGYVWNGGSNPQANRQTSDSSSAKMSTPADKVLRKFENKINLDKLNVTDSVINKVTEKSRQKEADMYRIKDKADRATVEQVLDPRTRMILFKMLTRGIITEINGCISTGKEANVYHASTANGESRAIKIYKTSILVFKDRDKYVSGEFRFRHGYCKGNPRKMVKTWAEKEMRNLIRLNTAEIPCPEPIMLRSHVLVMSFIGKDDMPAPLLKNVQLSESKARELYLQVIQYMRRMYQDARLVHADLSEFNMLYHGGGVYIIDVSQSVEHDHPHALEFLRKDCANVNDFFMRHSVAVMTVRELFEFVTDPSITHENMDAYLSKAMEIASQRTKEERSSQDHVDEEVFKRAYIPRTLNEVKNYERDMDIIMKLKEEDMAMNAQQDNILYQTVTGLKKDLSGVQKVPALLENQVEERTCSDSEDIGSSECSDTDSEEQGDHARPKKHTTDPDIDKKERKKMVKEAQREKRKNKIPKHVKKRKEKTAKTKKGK
Sequence of Serine/threonine-protein kinase PLK2 (Homo sapiens) (Q9NYY3 whole entry, looked up): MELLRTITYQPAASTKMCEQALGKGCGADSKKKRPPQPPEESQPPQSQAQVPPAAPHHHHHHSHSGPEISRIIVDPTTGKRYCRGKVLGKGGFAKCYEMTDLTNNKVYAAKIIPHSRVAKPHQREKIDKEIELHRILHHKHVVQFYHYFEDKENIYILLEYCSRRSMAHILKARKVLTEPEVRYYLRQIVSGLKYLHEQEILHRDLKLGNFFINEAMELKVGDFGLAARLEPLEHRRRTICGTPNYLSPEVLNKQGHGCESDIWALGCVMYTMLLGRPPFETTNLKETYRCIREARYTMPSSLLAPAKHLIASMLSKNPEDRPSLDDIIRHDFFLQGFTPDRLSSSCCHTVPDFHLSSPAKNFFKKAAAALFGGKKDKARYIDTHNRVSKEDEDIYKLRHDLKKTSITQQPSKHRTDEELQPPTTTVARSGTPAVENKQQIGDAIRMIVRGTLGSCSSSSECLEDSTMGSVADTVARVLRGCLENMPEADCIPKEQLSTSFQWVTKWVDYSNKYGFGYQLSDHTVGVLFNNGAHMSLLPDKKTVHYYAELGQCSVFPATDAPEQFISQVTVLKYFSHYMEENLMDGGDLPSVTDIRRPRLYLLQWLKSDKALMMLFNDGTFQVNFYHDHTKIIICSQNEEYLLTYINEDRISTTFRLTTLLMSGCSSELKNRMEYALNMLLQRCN
Sequence of Atypical kinase COQ8B, mitochondrial (Homo sapiens) (Q96D53 whole entry): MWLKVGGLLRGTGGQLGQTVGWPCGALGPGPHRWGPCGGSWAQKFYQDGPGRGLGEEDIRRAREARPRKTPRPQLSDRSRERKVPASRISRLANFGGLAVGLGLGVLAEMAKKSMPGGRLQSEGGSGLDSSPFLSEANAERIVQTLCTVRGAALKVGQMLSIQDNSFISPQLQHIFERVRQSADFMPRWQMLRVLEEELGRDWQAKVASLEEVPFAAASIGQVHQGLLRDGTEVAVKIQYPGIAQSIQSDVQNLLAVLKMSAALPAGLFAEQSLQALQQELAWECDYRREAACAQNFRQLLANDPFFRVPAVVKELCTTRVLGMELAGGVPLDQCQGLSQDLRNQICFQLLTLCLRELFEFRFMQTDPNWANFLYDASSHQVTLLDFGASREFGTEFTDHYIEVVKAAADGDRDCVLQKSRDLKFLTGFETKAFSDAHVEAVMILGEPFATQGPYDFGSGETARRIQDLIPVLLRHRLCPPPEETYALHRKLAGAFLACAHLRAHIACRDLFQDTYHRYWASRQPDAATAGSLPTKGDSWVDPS
Sequence of Membrane-associated tyrosine- and threonine-specific cdc2-inhibitory kinase (Homo sapiens) (Q99640 whole entry): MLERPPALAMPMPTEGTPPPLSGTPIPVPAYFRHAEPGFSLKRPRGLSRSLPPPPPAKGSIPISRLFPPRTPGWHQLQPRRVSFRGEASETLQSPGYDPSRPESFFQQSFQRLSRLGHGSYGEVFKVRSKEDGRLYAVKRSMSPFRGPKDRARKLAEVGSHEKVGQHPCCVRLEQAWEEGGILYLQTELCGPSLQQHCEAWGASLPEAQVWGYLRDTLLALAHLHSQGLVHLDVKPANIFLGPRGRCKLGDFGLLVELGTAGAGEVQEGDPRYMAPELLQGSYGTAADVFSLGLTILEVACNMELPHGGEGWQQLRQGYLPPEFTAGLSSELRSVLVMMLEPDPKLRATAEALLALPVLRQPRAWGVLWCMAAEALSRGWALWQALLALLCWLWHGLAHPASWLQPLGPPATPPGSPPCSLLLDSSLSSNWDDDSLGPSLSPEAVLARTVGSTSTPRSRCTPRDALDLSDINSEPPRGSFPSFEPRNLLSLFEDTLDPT
Sequence of Serine/threonine-protein kinase Sgk1 (Homo sapiens) (O00141 whole entry): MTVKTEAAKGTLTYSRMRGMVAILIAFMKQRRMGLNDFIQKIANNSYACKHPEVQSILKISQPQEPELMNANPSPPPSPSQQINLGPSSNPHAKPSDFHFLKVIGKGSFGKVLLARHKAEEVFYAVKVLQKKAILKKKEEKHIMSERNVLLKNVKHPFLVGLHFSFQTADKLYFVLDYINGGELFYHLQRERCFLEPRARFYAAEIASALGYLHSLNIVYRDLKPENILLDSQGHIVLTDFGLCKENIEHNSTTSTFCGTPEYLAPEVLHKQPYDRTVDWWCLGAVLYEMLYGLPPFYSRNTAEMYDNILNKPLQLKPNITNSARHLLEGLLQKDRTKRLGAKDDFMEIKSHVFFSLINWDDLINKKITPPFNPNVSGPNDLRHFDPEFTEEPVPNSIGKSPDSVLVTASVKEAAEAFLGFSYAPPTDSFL

SMILES | residual activity [1] | residual activity [2] | residual activity [4] | residual activity [5] | residual activity [6] | residual activity [7] | residual activity [8] | residual activity [9] | residual activity [10] | residual activity [12] | residual activity [14] | residual activity [15] | further results
Cc1c(NC(=O)c2cc(C(N)=O)nc3cc(F)ccc23)c(C(F)(F)F)nn1Cc1ccc(C#N)cc1 [BAY-876] | 99% | 80% | 83% | 90% | 100% | 93% | 95% | 54% | 82% | 89% | 99% | 78% | inhibition [3]: 2.31%; inhibition (Rattus norvegicus): -1.8%; IC50 [11]: 0.27 µM (not active); pKi (Histamine H1 receptor [13]): 5.00; pKi (Histamine H2 receptor): 5.09
Cc1c(NC(=O)c2cc(C(N)=O)nc3cc(F)ccc23)c(C(F)(F)F)nn1Cc1ccc(C(C)(C)C)cc1 [BAY-588] | 100% | 70% | 100% | 100% | 83% | 93% | 79% | 100% | 100% | 97% | 100% | 100% | inhibition [16]: -4.06%; inhibition [17]: 40.7%; inhibition (Histamine H1 receptor [18]): 46.1%; inhibition [19]: 3.41%; inhibition [20]: -9.45%; IC50 [21]: > 10 µM (not active)
